According to US20210382058A1, “PATIENT SELECTION FOR TREATMENT OF MYC POSITIVE CANCERS WITH INDENOISOQUINOLINES” (Purdue Research Foundation, priority 2020, published 2021):
Where two headings read alike, the source gives them in different places.

Legend:
[1] = system: MYC protein expression in MCF-7 breast cancer cells; assay: Western blotting of MYC protein level in MCF-7 cells; type: cell-based, human; settings: MCF-7, 0.5, 1, 2, and 4 μM, 24 h
In short: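 MCF-7 cells were exposed to compounds at 0.5, 1, 2 and 4 μM for 24 hours at 37° C. MYC was detected by immunoblot with ECL, using rabbit anti-MYC (1:1000) and anti-GAPDH (1:2000) as loading control.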

NCI-60 cancer cell lines = assay: NCI-60 cancer cell line drug screen (GI50, MGM); type: cell-based, human; settings: for GI50: read-out: Antiproliferative Activities [GI50 (μM)]
Method: Cancer cells were incubated with the test compounds at five concentrations ranging from 100 μM to 10 nM for 48 h. […] The approximate average of GI50 values across the entire panel of NCI-60 cancer cell lines for each compound was recorded as the MGM value.

MycG4 (MycPu22 DNA) = assay: 1H NMR titration of MycPu22 DNA; type: binding, human; settings: 150 μM DNA, 25° C., pH 7, 100 mM K+
Description: The binding interactions of six selected indenoisoquinolines with MycG4 were examined using ^1H NMR titration experiments in K^+-containing solution. […] The binding appeared to be in the medium-to-fast exchange rate on the NMR time-scale, as shown by the broadening of DNA proton peaks at lower drug equivalence (0.5 and 1) and the sharpening at higher drug equivalence (2 and 3). […] The MycG4 complexes of the five MycG4-interactive indenoisoquinolines were monomeric in nature as shown by native EMSA gels (FIG. 13).
All NMR experiments were conducted using a Bruker AV-500 spectrometer equipped with a Prodigy cryoprobe at 25° C. Watergate water suppression technique was used to suppress water signals. Briefly, each DNA sample was prepared to a final concentration of […] in 75 mM KCl, 25 mM phosphate buffer at pH 7.0, and containing 90/10% H2O/D2O. DNA samples were heated to 95° C. for 5 min then cooled slowly to room temperature for G4 formation. ^1H-NMR titrations were performed by adding increasing amounts of the compound (0.5 to 4 equivalents) to the oligonucleotide solution.

COc1cnc2c(c1)C(=O)c1c-2n(CCCNC2=NCCS2)c(=O)c2cc([N+](=O)[O-])ccc12 [Compound 12]
MYC-inhibitory effect (MYC protein, western blot) [1]: clear MYC-inhibitory effect | GI50 (NCI-60 cancer cell lines; Homo sapiens, 786-0, Renal Cancer, 786-0): 0.02 µM | GI50 (NCI-60 cancer cell lines; Homo sapiens, A549, Non-Small Cell Lung Cancer, A549/ATCC): 0.04 µM | GI50 (NCI-60 cancer cell lines; Homo sapiens, ACHN, Renal Cancer, ACHN): < 0.01 µM | GI50 (NCI-60 cancer cell lines; Homo sapiens, BT-549, Breast Cancer, BT-549): 0.05 µM | GI50 (NCI-60 cancer cell lines; Homo sapiens, CAKI-1, Renal Cancer, CAKI-1): < 0.01 µM | GI50 (NCI-60 cancer cell lines; Homo sapiens, CCRF-CEM, Leukemia, CCRF-CEM): < 0.01 µM | GI50 (NCI-60 cancer cell lines; Homo sapiens, COLO 205, Colon Cancer, COLO 205): 0.24 µM | GI50 (NCI-60 cancer cell lines; Homo sapiens, DU-145, Prostate Cancer, DU-145): < 0.01 µM | GI50 (NCI-60 cancer cell lines; Homo sapiens, EKVX, Non-Small Cell Lung Cancer, EKVX): 1.01 µM | GI50 (NCI-60 cancer cell lines; Homo sapiens, HCC 2998, Colon Cancer, HCC-2998): 1.03 µM | GI50 (NCI-60 cancer cell lines; Homo sapiens, HCT-15, Colon Cancer, HCT-15): 1.17 µM | GI50 (NCI-60 cancer cell lines; Homo sapiens, HL-60, Leukemia, HL-60(TB)): < 0.01 µM | GI50 (NCI-60 cancer cell lines; Homo sapiens, HOP-62, Non-Small Cell Lung Cancer, HOP-62): 0.01 µM | GI50 (NCI-60 cancer cell lines; Homo sapiens, HOP-92, Non-Small Cell Lung Cancer, HOP-92): 1.38 µM | GI50 (NCI-60 cancer cell lines; Homo sapiens, HT-29, Colon Cancer, HT29): 0.03 µM | GI50 (NCI-60 cancer cell lines; Homo sapiens, Hs-578T, Breast Cancer, HS 578T): 1.82 µM | GI50 (NCI-60 cancer cell lines; Homo sapiens, IGROV-1, Ovarian Cancer, IGROV1): 0.08 µM | GI50 (NCI-60 cancer cell lines; Homo sapiens, K562, Leukemia, K-562): 0.11 µM | GI50 (NCI-60 cancer cell lines; Homo sapiens, KM12, Colon Cancer, KM12): 1.11 µM | GI50 (NCI-60 cancer cell lines; Homo sapiens, LOX IMVI, Melanoma, LOX IMVI): < 0.01 µM | GI50 (NCI-60 cancer cell lines; Homo sapiens, Leukemia, SR): < 0.01 µM | GI50 (NCI-60 cancer cell lines; Homo sapiens, MCF7, Breast Cancer, MCF7): < 0.01 µM | GI50 (NCI-60 cancer cell lines; Homo sapiens, MDA-MB-231, Breast Cancer, MDA-MB-231/ATCC): 1.61 µM | GI50 (NCI-60 cancer cell lines; Homo sapiens, MDA-MB-435, Melanoma, MDA-MB-435): 0.48 µM | GI50 (NCI-60 cancer cell lines; Homo sapiens, MDA-MB-468, Breast Cancer, MDA-MB-468): 0.03 µM | GI50 (NCI-60 cancer cell lines; Homo sapiens, MOLT-4, Leukemia, MOLT-4): < 0.01 µM | GI50 (NCI-60 cancer cell lines; Homo sapiens, Malme-3M, Melanoma, MALME-3M): 0.62 µM | GI50 (NCI-60 cancer cell lines; Homo sapiens, Melanoma, M14): < 0.01 µM | GI50 (NCI-60 cancer cell lines; Homo sapiens, NCI-H23, Non-Small Cell Lung Cancer, NCI-H23): 0.02 µM | GI50 (NCI-60 cancer cell lines; Homo sapiens, NCI-H226, Non-Small Cell Lung Cancer, NCI-H226): 0.04 µM | GI50 (NCI-60 cancer cell lines; Homo sapiens, NCI-H322M, Non-Small Cell Lung Cancer, NCI-H322M): 0.04 µM | GI50 (NCI-60 cancer cell lines; Homo sapiens, NCI-H460, Non-Small Cell Lung Cancer, NCI-H460): < 0.01 µM | GI50 (NCI-60 cancer cell lines; Homo sapiens, NCI-H522, Non-Small Cell Lung Cancer, NCI-H522): < 0.01 µM | GI50 (NCI-60 cancer cell lines; Homo sapiens, OVCAR-3, Ovarian Cancer, OVCAR-3): 0.14 µM | GI50 (NCI-60 cancer cell lines; Homo sapiens, OVCAR-4, Ovarian Cancer, OVCAR-4): 0.48 µM | GI50 (NCI-60 cancer cell lines; Homo sapiens, OVCAR-5, Ovarian Cancer, OVCAR-5): 1.04 µM | GI50 (NCI-60 cancer cell lines; Homo sapiens, OVCAR-8, Ovarian Cancer, OVCAR-8): 0.02 µM | GI50 (NCI-60 cancer cell lines; Homo sapiens, Ovarian Cancer, NCl/ADR-RES): 0.02 µM | GI50 (NCI-60 cancer cell lines; Homo sapiens, Prostate Cancer, PC-3): 1.28 µM | GI50 (NCI-60 cancer cell lines; Homo sapiens, RPMI-8226, Leukemia, RPMI-8226): 0.03 µM | GI50 (NCI-60 cancer cell lines; Homo sapiens, RXF 393, Renal Cancer, RXF 393): 0.03 µM | GI50 (NCI-60 cancer cell lines; Homo sapiens, Renal Cancer, U0-31): < 0.01 µM | GI50 (NCI-60 cancer cell lines; Homo sapiens, SF-268, CNS Cancer, SF-268): < 0.01 µM | GI50 (NCI-60 cancer cell lines; Homo sapiens, SF-295, CNS Cancer, SF-295): 0.01 µM | GI50 (NCI-60 cancer cell lines; Homo sapiens, SF-539, CNS Cancer, SF-539): 0.04 µM | GI50 (NCI-60 cancer cell lines; Homo sapiens, SK-MEL-2, Melanoma, SK-MEL-2): 1.56 µM | GI50 (NCI-60 cancer cell lines; Homo sapiens, SK-MEL-5, Melanoma, SK-MEL-5): 0.03 µM | GI50 (NCI-60 cancer cell lines; Homo sapiens, SK-MEL-28, Melanoma, SK-MEL-28): 1.18 µM | GI50 (NCI-60 cancer cell lines; Homo sapiens, SK-OV-3, Ovarian Cancer, SK-OV-3): 0.01 µM | GI50 (NCI-60 cancer cell lines; Homo sapiens, SN12C, Renal Cancer, SN12C): < 0.01 µM | GI50 (NCI-60 cancer cell lines; Homo sapiens, SNB-19, CNS Cancer, SNB-19): 0.01 µM | GI50 (NCI-60 cancer cell lines; Homo sapiens, SNB-75, CNS Cancer, SNB-75): 0.03 µM | GI50 (NCI-60 cancer cell lines; Homo sapiens, SW-620, Colon Cancer, SW-620): 0.01 µM | GI50 (NCI-60 cancer cell lines; Homo sapiens, T47D, Breast Cancer, T-47D): < 0.01 µM | GI50 (NCI-60 cancer cell lines; Homo sapiens, TK-10, Renal Cancer, TK-10): 1.34 µM | GI50 (NCI-60 cancer cell lines; Homo sapiens, U-251, CNS Cancer, U251): < 0.01 µM | GI50 (NCI-60 cancer cell lines; Homo sapiens, UACC-62, Melanoma, UACC-62): < 0.01 µM | GI50 (NCI-60 cancer cell lines; Homo sapiens, UACC-257, Melanoma, UACC-257): 0.58 µM | mean GI50 across NCI-60 panel (MGM) (NCI-60 cancer cell lines; Homo sapiens, average of GI50 values across the entire panel of NCI-60 cancer cell lines): 55 nM | anticancer activity (GI50 profile) in words (NCI-60 cancer cell lines; NCI-60 panel): more potent anticancer activities compared to compounds 4 and 20 | binding to MycG4 by 1H NMR titration (MycG4 (MycPu22 DNA)): less well-defined MycG4 complexes
